Measurements from patent publication US10975118B2, “Crystalline dipeptides useful in the synthesis of elamipretide” (Stealth BioTherapeutics Corp., priority 2018, dated 2021).
Converted amounts (≈) assume the structure as drawn. Where a SMILES comes first, the peptide text is derived from it. [ ]: non-standard residue; d: D form. The star is where a group is joined. Dmt = Cc1cc(O)cc(C)c1C[C@H](N)C(=O)O; Boc = CC(C)(C)OC(=O)*

Assays:
Assay type in all cases: physicochemical
[1] = Preliminary single-solvent solubility, determined by HPLC (response curve)
Source text: Preliminary Single-Solvent Solubility of Compound I: […]

[2] = Preliminary precipitation studies (MeOH/water); conditions: aqueous with cosolvent or surfactant or cyclodextrin, Normal addition, 10 mL/g, 25° C.
Source text: Preliminary Precipitation Studies (MeOH/Water) of Compound I: […]

[3] = In process precipitation results (MeOH/water); conditions: aqueous with cosolvent or surfactant or cyclodextrin
Source text: In Process Precipitation Results (MeOH/Water) of Compound I: […]

[4] = Stability and handling of the isolated zwitterionic form (statement); conditions: solid isolated from CH3OH/H2O with Na2CO3
Procedure: Preparation of the Zwitterionic Form of Compound II
[drawing 5] • 1. The crude HCl salt is suspended in CH3OH/H2O (1/1, v/v) • 2. The suspension is heated to 45-50° C. • 3. After the clear solution is formed, an aqueous solution of Na2CO3 (1.2 eq.) is added. During the addition, the solid begins to precipitate. • 4. The suspension is stirred for 1 h at 45° C., and then cooled to 15° C. and stirred for an additional hour. • 5. The solid is isolated by filtration and dried to provide Compound II with high purity (99.4 area %) by HPLC.
Formation of zwitterionic compound led to high purity material that was stable, easily handled, and highly crystalline.

Structure (SMILES) | solubility ([1]; organic solvent or mixture, solvent EtOH (SDAG-7)) [µg/mL] | solubility ([1]; organic solvent or mixture, solvent MeOAc) [µg/mL] | solubility ([1]; organic solvent or mixture, solvent THF) [µg/mL] | solubility ([1]; organic solvent or mixture, solvent iPrOAc) [µg/mL] | solubility ([1]; solvent Water) [µg/mL] | solubility ([2]; Experiment 1, MeOH/Water 1:3) [µg/mL] | solubility ([2]; Experiment 2, MeOH/Water 1:5) [µg/mL] | solubility ([2]; Experiment 3, MeOH/Water 1:9) [µg/mL] | solubility ([2]; Experiment 4, MeOH/Water 1:19) [µg/mL] | solubility ([3]; Experiment 2447-41, MeOH/Water 1:9, 13 mL/g) [µg/mL] | solubility ([3]; Experiment 2447-47, MeOH/Water 1:5, 10 mL/g) [µg/mL] | Stability of material [4]
CC(C)(C)OC(=O)NCCCC[C@H](N)C(=O)N[C@@H](Cc1ccccc1)C(N)=O [Compound I, L-Lys(Boc)-Phe-NH2] | 155000 (≈ 394 mM) | 18200 (≈ 46.4 mM) | 84500 (≈ 215 mM) | 5100 (≈ 13 mM) | 4100 (≈ 10.4 mM) | 7000 (≈ 17.8 mM) | 5000 (≈ 12.7 mM) | 3600 (≈ 9.17 mM) | 2700 (≈ 6.88 mM) | 2500 (≈ 6.37 mM) | 4200 (≈ 10.7 mM) | –
Cc1cc(O)cc(C)c1C[C@H](NC(=O)[C@@H](CCCNC(=N)N)NC(=O)OC(C)(C)C)C(=O)O [Compound II, Boc-D-Arg-DMT] (Boc-[dR]-[Dmt]-OH) | – | – | – | – | – | – | – | – | – | – | – | stable
